Assay results published in US8609332B2, “Assay” (Queen's University of Belfast, priority 2006, dated 2013).

Tests used:
[1] = system: ser473 phosphorylated Akt; experiment: AKT phosphorylation immunoblot; type: cell-based, rat
Experimental: FIG. 5C Immunodetection and LY290042-inhibition of phosphorylated Akt in parental R37, R37-CMV, R37-OPN and R37-RAN cells. 20 μg cell lysates were loaded onto a SDS 10% (W(W) polyacrylamide gel as follows: lane 1 R37, lane 2 R37-pBk-CMV; lane 3 R37-RAN, lane 4 R37-OPN; lane 5 R37-OPN treated with 50 μm LY290042 for 18 hr (R37-OPN/LY); and lane 6 R37-RAN treated with 50 μm LY290042 for 18 hr (R37-RAN/LY). Proteins were detected in immunoblots using specific antibodies to phosphoserine 473 AkT. Bands were quantified using densitometric analysis and quantified with respect to those of β-actin. The results were a representative sample of three experiments. The average fold increase for 3 different experiments for phosphorylated AkT on ser473 is: lane 1=1, lane 2=2.2±0.4, lane 3=22.5±0.7, lane 4=21.1±0.5, lane 5=0±0 and lane 6=0±0.
The R37, R37-CMV, R37-RAN and R37-OPN cells were harvested at 80% confluence from 7 cm dishes. The cell were lysed in 300 μl of 2× Loading buffer (20% glycerol (v/v), 4% SDS (w/v), 10% 2-mercaptoethanol (v/v), 126 mM Tris, pH 6.8 and coloured with bromophenol blue). The lysates were sonicated, boiled at 100° C. for 5 minutes and then centrifuged at 15000 rpm for 10 minutes. Proteins were resolved by 7.5% SDS-PAGE and immunoblofted for ser473 phosphorylated Akt.as previously (43).

[2] = at 50 μM; cited from earlier work

O=c1cc(N2CCOCC2)oc2c(-c3ccccc3)cccc12 [LY294002, 2-4(4-morpholinyl)-8-phenyl-4H-1-benzopyran-4-one]
phosphorylated AkT on ser473, average fold increase (R37 = 1) ([1]; R37-OPN cells treated with 50 μm for 18 hr (lane 5)): 0±0 fold
phosphorylated AkT on ser473, average fold increase (R37 = 1) ([1]; R37-RAN cells treated with 50 μm for 18 hr (lane 6)): 0±0 fold
induction of apoptosis [2]: without inducing apoptosis
